Consider 20 compounds from patent publication US12404249B2, “Heterocyclic derivatives and use thereof” (C&C RESEARCH LABORATORIES, priority 2018, dated 2025).

In experiment [1] the test system is prostate cancer cell line (LNCap). The experiment can be described thus: Cell growth inhibition assay (Celltiter Glo). The conditions noted are these: Homo sapiens, LNCap cells, 120 hours incubation. The class given is cell-based. As for the experimental part:
Cancer cell inhibitory effects by the compounds of the Examples were evaluated as follows. The prostate cancer cell line (LNCap) used was cultured under the condition according to the vendor's recommendation. LNCap was dispensed into a 96-well plate at 10,000 cells/well. After incubation under the condition of 37° C. and 5% CO2 for 24 hours, the Example compounds of 50 mM DMSO stock were diluted to various concentrations and treated to the 96-well plate containing cells. After treatment of the Example compounds, LNCap cells were incubated in an incubator (37° C., 5% CO2) for 120 hours. After each incubation time, the 96-well plate was observed under a microscope to record the presence or absence of drug precipitation and specificities, and the 96-well plate was kept at room temperature for 30 minutes. Then, after addition of 20 μL of Celltiter Glo solution, the 96-well plate was well shaken for 30 minutes. The growth inhibitory activity was measured on microLUMA LB96P (BERTHOLD) instrument using Glo-vial protocol. As a negative control, a 96 well-plate in which culture medium was added but cells were not plated was used. As a positive control, a 96 well-plate in which cells were plated and 0.1% DMSO instead of drugs was added was used. The results of growth inhibitory effects of the Example compounds on prostate cancer cell line are represented in Table 2.
For orientation: Cellular ATP, detected with luciferase, serves as a proxy for viable cell number.

The target of experiment [2] is T1, STAT3 (Homo sapiens, UniProt P40763).
T1 construct: endogenous in cells; host or cells: LNCaP (human prostate cancer) stably carrying pSTAT3-TA-luc reporter plasmid
T1 sequence (P40763 whole entry): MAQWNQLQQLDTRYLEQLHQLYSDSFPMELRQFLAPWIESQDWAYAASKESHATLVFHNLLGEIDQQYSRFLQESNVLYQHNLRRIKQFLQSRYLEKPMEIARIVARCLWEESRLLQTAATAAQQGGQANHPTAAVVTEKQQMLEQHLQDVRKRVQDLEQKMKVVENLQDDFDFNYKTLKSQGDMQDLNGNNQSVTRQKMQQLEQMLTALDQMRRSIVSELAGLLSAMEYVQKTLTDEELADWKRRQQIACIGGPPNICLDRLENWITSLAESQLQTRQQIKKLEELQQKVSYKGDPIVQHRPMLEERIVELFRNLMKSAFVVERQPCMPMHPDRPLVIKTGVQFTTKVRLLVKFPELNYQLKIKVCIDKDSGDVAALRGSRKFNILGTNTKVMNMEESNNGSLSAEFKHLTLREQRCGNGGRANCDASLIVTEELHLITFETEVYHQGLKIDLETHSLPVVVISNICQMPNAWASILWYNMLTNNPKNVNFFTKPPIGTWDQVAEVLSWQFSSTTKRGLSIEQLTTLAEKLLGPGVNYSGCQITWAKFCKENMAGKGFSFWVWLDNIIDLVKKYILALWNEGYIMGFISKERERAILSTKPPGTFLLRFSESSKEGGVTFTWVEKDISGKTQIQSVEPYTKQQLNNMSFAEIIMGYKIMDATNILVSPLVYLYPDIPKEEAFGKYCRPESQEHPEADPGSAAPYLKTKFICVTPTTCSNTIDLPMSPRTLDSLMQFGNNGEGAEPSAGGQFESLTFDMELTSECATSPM
Put plainly: STAT3 activation inhibition assay (reporter gene assay, LNcaP stable cell line, IL-6 stimulated). As to conditions: LNcaP stable cell line [plasmid STAT3-TA-luc], IL-6 10 ng/mL, 48 hours, luciferase activity; read-out: IC50 (μM) pSTAT3. It counts as cell-based. On the procedure:
Cancer cell lines used for evaluating the compounds of the Examples were purchased from ATCC (American Type Culture Collection) or KCLB (Korean Cell Line Bank), and cultured according to the vendor's recommendation. The human prostate cancer cell line stably expressing the STAT3 promoter (LNcaP stable cell line [plasmid STAT3-TA-luc])—which was prepared to evaluate the inhibitory effect of the compounds of the Examples against dimerization of STAT3—was cultured in RPMI1640 (Cat no. 11875, Gibco), 10% fetal bovine serum (Cat no. SH30071.03, Hyclone) and 150 μg/mL G418 solution (Cat no. 04 727 894 001, Roche).
The reporter gene assay of LNcap stable cell line was carried out by the use of RPMI 1640 medium containing 3% DCC-FBS (without G-418). The cell line was dispensed into two (2) white 96-well plates at 30,000 cells/well/50 μL. The cell line was incubated for 24 hours under the condition of 37° C. and 5% CO2, and then the Example compounds of 50 mM DMSO stock were diluted to various concentrations and treated to two (2) white 96-well plates containing cells. Then, IL-6 was treated to a final concentration of 10 ng/mL. After the treatment of Example compounds and IL-6, the cells were cultured for 48 hours under the condition of 37° C. and 5% CO2. After 48 hours, the 96-well plates were observed under a microscope to record the presence or absence of drug precipitation and specificities, and the 96-well plates were kept at room temperature for 30 minutes. Then, in the case of the first 96-well plate, the culture medium on the plate was removed to measure the luciferase activity, and treated with passive lysis buffer at 20 µL/well and shaken for 30 minutes. The luciferase activity was measured on microLUMA LB96P (BERTHOLD) or Centro XS LB 960 (BERTHOLD) instrument using Luciferase assay system (Cat No. E1501, Promega Corporation). In the case of the second 96-well plate, 20 μL of Glo-mix solution was added to measure cytotoxicity by the compounds of the Examples, and the plate was well shaken for 10 minutes and analyzed on microLUMA LB96P (BERTHOLD) instrument using Glo-vial protocol. As a negative control, a 96 well-plate in which culture medium was added but cells were not plated was used. As a positive control, a 96 well-plate in which cells were plated and 0.1% DMSO and culture medium containing stimulation were added was used.
The results of evaluating the inhibitory effects of the compounds of the Examples against dimerization of STAT3 and STAT1 via STAT3 and STAT1 reporter gene assay are represented in Table 1.
(In general: A reporter such as luciferase makes a cellular process visible.)

As usually defined, the IC50 is the midpoint of a concentration-inhibition curve. On to `CS(=O)(=O)Nc1ccc(CCNc2cc(Cl)nc3ccc(-c4ccc(Cl)cc4Cl)cc23)cc1` [Example 57, N-(4-(2-((2-chloro-6-(2,4-dichlorophenyl)quinolin-4-yl)amino)ethyl)phenyl)methanesulfonamide], for which the 50% inhibitory concentration (IC50) came out at 8.6 µM in experiment [1] and 17.9 µM in experiment [2].

Consider `CS(=O)(=O)Nc1ccc(CNC(=O)c2cc(Cl)nc3ccccc23)cc1` [Example 58, 2-chloro-N-(4-(methylsulfonamido)benzyl)quinolin-4-carboxamide], for which the IC50 in experiment [1] and in experiment [2] was over 50 µM throughout.

As to `O=[N+]([O-])c1ccc(C(F)(F)CNc2ncnc3ccccc23)cc1` [Example 59, N-(2,2-difluoro-2-(4-nitrophenyl)ethyl)quinazolin-4-amine], the values for the IC50 in experiment [1] and in experiment [2] were 0.16 µM and 0.35 µM, respectively.

With `O=S(=O)(Nc1ccc(CCNc2ncnc3ccccc23)cc1)C(F)(F)F` [Example 60, 1,1,1-trifluoro-N-(4-(2-(quinazolin-4-ylamino)ethyl)phenyl)methanesulfonamide], the IC50 came out at 29.5 µM in experiment [1] and 14 µM in experiment [2].

As to `O=[N+]([O-])c1ccc(CCNc2ncnc3ccc(F)cc23)cc1` [Example 61, 6-fluoro-N-(4-nitrophenethyl)quinazolin-4-amine], the values for the IC50 in experiment [1] and in experiment [2] were 0.19 µM and 0.053 µM, respectively.

Consider `O=[N+]([O-])c1ccc(CCNc2cncc3ccccc23)cc1` [Example 62, N-(4-nitrophenethyl)isoquinolin-4-amine], for which the figures for the IC50 in experiment [1] and in experiment [2] were 23.5 µM and 12.1 µM, respectively.

For the compound `CS(=O)(=O)Nc1ccc(CCNc2cncc3ccccc23)cc1` [Example 63, N-(4-(2-(isoquinolin-4-ylamino)ethyl)phenyl)methanesulfonamide], the IC50 in experiment [1] came to 1.9 µM; in experiment [2], 0.75 µM.

Take `CS(=O)(=O)Nc1ccc(CCNc2ncnc3ccc(F)cc23)cc1` [Example 64, N-(4-(2-((6-fluoroquinazolin-4-yl)amino)ethyl)phenyl)methanesulfonamide]: the IC50 in experiment [1] turned out to be 0.23 µM; in experiment [2] it was 0.063 µM.

Turning to `O=C(Cc1ccc([N+](=O)[O-])cc1)Nc1ncnc2ccccc12` [Example 65, 2-(4-nitrophenyl)-N-(quinazolin-4-yl)acetamide], the IC50 in experiment [1] and in experiment [2] was over 50 µM throughout.

For the compound `CS(=O)(=O)Nc1ccc(CCNc2ncnc3ccsc23)cc1` [Example 66, N-(4-(2-(thieno[3,2-d]pyrimidin-4-ylamino)ethyl)phenyl)methanesulfonamide], the IC50 amounted to 0.71 µM in experiment [1] and 0.74 µM in experiment [2].

Consider `O=[N+]([O-])c1ccc(CCNc2nc(Cl)nc3ncccc23)cc1` [Example 67, 2-chloro-N-(4-nitrophenethyl)pyrido[2,3-d]pyrimidin-4-amine], for which the IC50 in experiment [1] came to 3.7 µM; in experiment [2], 4.4 µM.

In the case of `CS(=O)(=O)Nc1ccc(CCNc2ncnc3sccc23)cc1` [Example 68, N-(4-(2-(thieno[2,3-d]pyrimidin-4-ylamino)ethyl)phenyl)methanesulfonamide], the values for the IC50 in experiment [1] and in experiment [2] were 0.27 µM and 0.076 µM, respectively.

Consider `CS(=O)(=O)Nc1ccc(CCNc2ncnc3scnc23)cc1` [Example 69, N-(4-(2-(thiazolo[5,4-d]pyrimidin-7-ylamino)ethyl)phenyl)methanesulfonamide], for which the IC50 in experiment [1] was 0.13 µM; in experiment [2], 0.046 µM.

For the compound `CS(=O)(=O)Nc1ccc(CCNc2ncnc3[nH]ccc23)cc1` [Example 70, N-(4-(2-((7H-pyrrolo[2,3-d]pyrimidin-4-yl)amino)ethyl)phenyl)methanesulfonamide], the half-maximal inhibitory concentration (IC50) in experiment [1] was found to be 10.8 µM; in experiment [2] it was 3.8 µM.

For `CS(=O)(=O)Nc1ccc(CCNc2nccc3nccnc23)cc1` [Example 71, N-(4-(2-(pyrido[3,4-b]pyrazin-5-ylamino)ethyl)phenyl)methanesulfonamide], the IC50 in experiment [1] stood at 20.9 µM; in experiment [2], 9.6 µM.

With `Cc1cnc2ccccc2c1NCCc1ccc(NS(C)(=O)=O)cc1` [Example 72, N-(4-(2-((3-methylquinolin-4-yl)amino)ethyl)phenyl)methanesulfonamide], the results for the concentration for half-maximal inhibition (IC50) in experiment [1] and in experiment [2] were 1.4 µM and 0.62 µM, respectively.

On to `CS(=O)(=O)Nc1ccc(CCNc2nccc3occc23)cc1` [Example 73, N-(4-(2-(furo[3,2-c]pyridin-4-ylamino)ethyl)phenyl)methanesulfonamide], for which the IC50 turned out to be 33 µM in experiment [1] and 35.9 µM in experiment [2].

On to `CS(=O)(=O)Nc1ccc(CCNc2ncc(Cl)c3ccccc23)cc1` [Example 74, N-(4-(2-((4-chloroisoquinolin-1-yl)amino)ethyl)phenyl)methanesulfonamide], for which the IC50 in experiment [1] came to 13.1 µM; in experiment [2], 3.9 µM.

Consider `CS(=O)(=O)Nc1ccc(CCNc2nccc3ccccc23)cc1` [Example 75, N-(4-(2-(isoquinolin-1-ylamino)ethyl)phenyl)methanesulfonamide], for which the results for the IC50 in experiment [1] and in experiment [2] were 6 µM and 4.3 µM, respectively.

As for `COc1cc(NCCc2ccc(NS(C)(=O)=O)cc2)c2ccccc2n1` [Example 76, N-(4-(2-((2-methoxyquinolin-4-yl)amino)ethyl)phenyl)methanesulfonamide], the IC50 in experiment [1] was found to be 3.9 µM; in experiment [2] it was 1.2 µM.
